In one test the test system is Ba/F3 Del19/C797S cells. As to the kind of experiment: Antiproliferative activity assay (CellTiter-Glo, 72 h). In kind it is cell-based. Particulars: for IC50: Mus musculus. How it is done:
(§1) After incubating the cells in a 5% CO2 incubator at 37° C. for 72 hours, 25 μL of CellTiter-Glo reagent (CTG) was added to each well and the plate was gently shaken and incubated in a 5% CO2 incubator at 37° C. (protected from light) for 30 minutes. […] was measured using the Envision reader.

The subject of a further test is Ba/F3 L858R/C797S cells. The test is described as above. In kind it is cell-based. Particulars: for IC50: Mus musculus. On the procedure:
as §1

The target in another test is EGFR C797S (Homo sapiens, UniProt P00533, C797S). As to the kind of experiment: Kinase inhibition assay (HTRF). A general note: In TR-FRET formats the signal depends on donor and acceptor labels being close together.
The target of the next test is EGFR L792H (Homo sapiens, UniProt P00533, L792H). The experiment in a line: Kinase inhibition assay (HTRF).
The target of test [1] is EGFR L858R/C797S dual mutations (Homo sapiens, UniProt P00533, C797S/L858R). The experiment in a line: Kinase inhibition assay (HTRF).
For test [2], the target named is EGFR Del19/C797S dual mutations (Homo sapiens, UniProt P00533, C797S, form not given). As to the kind of experiment: Kinase inhibition assay (HTRF).

Like-named read-outs stand apart in the source and are kept apart here.

The term IC50 denotes the concentration that inhibits the measured activity by half. Turning to `C=CC(=O)Nc1cc(Nc2nccc(-c3cn(C)c4ccccc34)n2)c(OC)cc1N(C)CCN(C)C` [Osimertinib, osimertinib, reference compound], the half-inhibitory concentration (IC50) in the test with Ba/F3 Del19/C797S cells (BaF3, 72 h) worked out at 1320 nM; with Ba/F3 L858R/C797S cells (BaF3, 72 h) it was 1260 nM.
`C#Cc1cccc(Nc2ncnc3cc(OC)c(O[C@@H]4CCN(C)CC4(F)F)cc23)c1F` [Quinazoline derivative (I), (R)-6-[(3,3-difluoro-1-methylpiperidin-4-yl)oxy]-N-(3-ethynyl-2-fluorophenyl)-7-methoxyquinazolin-4-amine]: the “Relative bioactivity, times that of osimertinib” value in the test with Ba/F3 Del19/C797S cells (Ba/F3 Del19/C797S) was ~4900 times; in the test on Ba/F3 L858R/C797S cells (Ba/F3 L858R/C797S), “approximately 490 times”; at EGFR C797S (EGFR C797S kinase) it was > 1052 times; at EGFR L792H (EGFR L792H kinase), ~49 times; in test [1] (EGFR L858R/C797S kinase), ~93118 times; in test [2], ~498 times. In addition, the figures for the “Relative potency % (Osimertinib IC50/Quinazoline derivative (I) IC50×100%)” value with Ba/F3 Del19/C797S cells (Ba/F3 Del19/C797S) and in the test on Ba/F3 L858R/C797S cells (Ba/F3 L858R/C797S) were 490370.4% and 49004.3%, respectively. In addition, the IC50 in the test on Ba/F3 Del19/C797S cells (BaF3, Ba/F3 Del19/C797S, 72 hours, CellTiter-Glo, read-out: IC50) was 0.27 nM; with Ba/F3 L858R/C797S cells (BaF3, Ba/F3 L858R/C797S, 72 hours, CellTiter-Glo, read-out: IC50), 2.56 nM; against EGFR C797S, 0.95 nM; against EGFR L792H, 3.42 nM; in test [1] it was 0.037 nM; in test [2], 0.131 nM. For the same molecule, the Relative potency % at EGFR C797S (EGFR C797S kinase) is recorded as >105263%; on EGFR L792H (EGFR L792H kinase), 4918%; in test [1] (EGFR L858R/C797S kinase) it was 9311751.9%; in test [2], 49809.0%.

The values are drawn from patent US20260069592A1 (WEISHANG (SHANGHAI) BIO-PHARMACEUTICAL CO., LTD., priority 2023, published 2026).
